Results from patent US11492385B2, “Long-acting co-agonists of the glucagon and GLP-1 receptors” (Merck Sharp & Dohme Corp., priority 2015, dated 2022).
Starred links: 1 amine or outer side, 2 acyl side, 3 side chain; linkers in the order of their positions; H or OH if unused. Non-standard residues stand in square brackets, D forms with d. Residues, ends and D or L forms follow the SMILES beside them. Groups on a side chain read outwards from the residue. *: point of attachment. Phe(4-CH2NH2) = NCc1ccc(C[C@H](N)C(=O)O)cc1; C18 diacid = O=C(O)CCCCCCCCCCCCCCCCC(=O)*; C17 diacid = O=C(O)CCCCCCCCCCCCCCCC(=O)*; C16 diacid = O=C(O)CCCCCCCCCCCCCCC(=O)*; γGlu = O=C(O)[C@H](CCC(=O)[*:2])N[*:1]; Met(O2) = CS(=O)(=O)CC[C@H](N)C(=O)O; αMeD = C[C@](N)(CC(=O)O)C(=O)O; αMeL = CC(C)C[C@](C)(N)C(=O)O; AEEA = NCCOCCOCC(=O)O; Aib = CC(C)(N)C(=O)O

Tests used:
[1] = target: T1, human GLP1R (Homo sapiens, UniProt P43220); experiment: cAMP activity assay, cells expressing human GLP1R; assay type: cell-based; conditions: cAMP production, assay buffer with or without 20% human serum (not stated which)
T1 construct: expressed in transfected cells; kept under Blasticidin and Hygromycin selection
T1 sequence (P43220 24-463): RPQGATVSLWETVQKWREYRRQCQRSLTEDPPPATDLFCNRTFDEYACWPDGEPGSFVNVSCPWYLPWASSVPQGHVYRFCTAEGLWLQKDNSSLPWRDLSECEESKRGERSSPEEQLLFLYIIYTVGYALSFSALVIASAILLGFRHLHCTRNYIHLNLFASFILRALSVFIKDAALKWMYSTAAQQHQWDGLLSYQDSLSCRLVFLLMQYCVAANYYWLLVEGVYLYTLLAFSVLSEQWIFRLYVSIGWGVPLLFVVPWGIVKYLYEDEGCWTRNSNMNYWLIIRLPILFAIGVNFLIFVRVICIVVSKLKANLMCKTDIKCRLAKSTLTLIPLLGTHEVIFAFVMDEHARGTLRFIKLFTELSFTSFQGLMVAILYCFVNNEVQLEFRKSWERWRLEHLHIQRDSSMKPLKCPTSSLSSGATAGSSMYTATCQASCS
Method: (§1) Activity of the peptides at the Glucagon receptor (GCGR) and GLP-1 receptor (GLP1R) was measured in a cAMP activity assay. Peptides were dissolved in 100% DMSO and serially diluted to generate 10 point titrations. The peptide solutions were then transferred into 384-well assay plates (150 nL/well). […] Production of cAMP was determined using […] kits (DiscoverX) following manufacturer protocol. The plates were incubated for overnight at room temperature in the dark. Luminescence was measured using an EnVision Multilabel plate reader (Perkin Elmer). Native GLP-1 and Glucagon (Bachem) are used as control peptides. EC50 values were calculated using uses a 4 parameter logistic fit based on the Levenberg-Marquardt algorithm.

[2] = target: T2, human GCGR (Homo sapiens, UniProt P47871); experiment: cAMP activity assay, cells expressing human GCGR; assay type: cell-based; conditions: for EC50: cAMP production, cells expressing human GCGR, assay buffer with or without 20% human serum (not stated which), read-out: GCGR EC50 human; for hGCGR/hGLP1R (hTone): ratio of human GCGR EC50 to human GLP1R EC50
T2 construct: expressed in transfected cells; kept under Blasticidin and Hygromycin selection
T2 sequence (P47871 26-477): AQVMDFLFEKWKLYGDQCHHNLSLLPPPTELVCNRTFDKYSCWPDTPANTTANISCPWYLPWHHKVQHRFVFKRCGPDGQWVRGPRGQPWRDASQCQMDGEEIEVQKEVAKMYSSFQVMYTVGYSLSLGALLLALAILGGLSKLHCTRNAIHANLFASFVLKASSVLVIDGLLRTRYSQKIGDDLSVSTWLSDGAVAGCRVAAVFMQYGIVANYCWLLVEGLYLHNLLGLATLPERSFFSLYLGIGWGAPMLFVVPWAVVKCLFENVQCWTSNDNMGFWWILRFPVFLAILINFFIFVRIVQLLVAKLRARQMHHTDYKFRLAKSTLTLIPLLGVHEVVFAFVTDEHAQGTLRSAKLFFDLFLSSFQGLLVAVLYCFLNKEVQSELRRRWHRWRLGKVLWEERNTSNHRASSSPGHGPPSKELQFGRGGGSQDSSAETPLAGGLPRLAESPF
Method: as §1

EC50 [1]	EC50 [2]	hGCGR/hGLP1R (hTone) [2]	SMILES
0.02 nM	0.05 nM	3.13	CC(C)C[C@H](NC(=O)[C@H](Cc1ccc(O)cc1)NC(=O)[C@H](CCCCN)NC(=O)[C@H](CO)NC(=O)[C@H](Cc1ccc(O)cc1)NC(=O)[C@H](CC(=O)O)NC(=O)[C@H](CO)NC(=O)[C@@H](NC(=O)[C@H](Cc1ccccc1)NC(=O)[C@@H](NC(=O)CNC(=O)[C@H](CCC(N)=O)NC(=O)C(C)(C)NC(=O)[C@@H](N)Cc1c[nH]cn1)[C@@H](C)O)[C@@H](C)O)C(=O)N[C@@H](CC(=O)O)C(=O)N[C@@H](C)C(=O)N[C@@H](CCCNC(=N)N)C(=O)N[C@@H](C)C(=O)N[C@@H](C)C(=O)N[C@@H](CCCCNC(=O)COCCOCCNC(=O)COCCOCCNC(=O)CC[C@H](NC(=O)CCCCCCCCCCCCCCC(=O)O)C(=O)O)C(=O)N[C@@H](CC(=O)O)C(=O)N[C@@H](Cc1ccccc1)C(=O)N[C@H](C(=O)N[C@@H](CCC(N)=O)C(=O)N[C@@H](Cc1c[nH]c2ccccc12)C(=O)N[C@@H](CC(C)C)C(=O)N[C@@H](CCS(C)(=O)=O)C(=O)N[C@@](C)(CC(=O)O)C(=O)N[C@H](C(N)=O)[C@@H](C)O)C(C)C [compound 41] (H-H[Aib]QGTFTSDYSKYLDARAAK([AEEA-AEEA-γGlu-C16 diacid])DFVQWL[Met(O2)][αMeD]T-NH2)
0.05 nM	0.05 nM	1.10	CC(C)C[C@H](NC(=O)[C@H](Cc1ccc(O)cc1)NC(=O)[C@H](CCCCN)NC(=O)[C@H](CO)NC(=O)[C@H](Cc1ccc(O)cc1)NC(=O)[C@H](CC(=O)O)NC(=O)[C@H](CO)NC(=O)[C@@H](NC(=O)[C@H](Cc1ccccc1)NC(=O)[C@@H](NC(=O)CNC(=O)[C@H](CCC(N)=O)NC(=O)C(C)(C)NC(=O)[C@@H](N)Cc1c[nH]cn1)[C@@H](C)O)[C@@H](C)O)C(=O)N[C@@H](CC(=O)O)C(=O)N[C@@H](C)C(=O)N[C@@H](CCCNC(=N)N)C(=O)N[C@@H](C)C(=O)N[C@@H](C)C(=O)N[C@@H](CCC(N)=O)C(=O)N[C@@H](CCCCNC(=O)COCCOCCNC(=O)COCCOCCNC(=O)CC[C@H](NC(=O)CCCCCCCCCCCCCCCC(=O)O)C(=O)O)C(=O)N[C@@H](Cc1ccccc1)C(=O)N[C@H](C(=O)N[C@@H](CCC(N)=O)C(=O)N[C@@H](Cc1c[nH]c2ccccc12)C(=O)N[C@@H](CC(C)C)C(=O)N[C@@H](CCS(C)(=O)=O)C(=O)N[C@@H](CC(=O)O)C(=O)N[C@H](C(N)=O)[C@@H](C)O)C(C)C [compound 48] (H-H[Aib]QGTFTSDYSKYLDARAAQK([AEEA-AEEA-γGlu-C17 diacid])FVQWL[Met(O2)]DT-NH2)
0.14 nM	0.43 nM	3.11	CC(C)C[C@H](NC(=O)[C@H](Cc1ccc(O)cc1)NC(=O)[C@H](CCCCN)NC(=O)[C@H](CO)NC(=O)[C@H](Cc1ccc(CNC(=O)COCCOCCNC(=O)COCCOCCNC(=O)CC[C@H](NC(=O)CCCCCCCCCCCCCCCCC(=O)O)C(=O)O)cc1)NC(=O)[C@H](CC(=O)O)NC(=O)[C@H](CO)NC(=O)[C@@H](NC(=O)[C@H](Cc1ccccc1)NC(=O)[C@@H](NC(=O)CNC(=O)[C@H](CCC(N)=O)NC(=O)C(C)(C)NC(=O)[C@@H](N)Cc1c[nH]cn1)[C@@H](C)O)[C@@H](C)O)C(=O)N[C@@H](CC(=O)O)C(=O)N[C@@H](C)C(=O)N[C@@H](CCCNC(=N)N)C(=O)N[C@@H](C)C(=O)N[C@@H](C)C(=O)N[C@@H](CCC(N)=O)C(=O)N[C@@H](CC(=O)O)C(=O)N[C@@H](Cc1ccccc1)C(=O)N[C@H](C(=O)N[C@@H](CCC(N)=O)C(=O)N[C@@H](Cc1c[nH]c2ccccc12)C(=O)N[C@@H](CC(C)C)C(=O)N[C@@H](CCS(C)(=O)=O)C(=O)N[C@@H](CC(=O)O)C(=O)N[C@H](C(N)=O)[C@@H](C)O)C(C)C [compound 28] (H-H[Aib]QGTFTSD[Phe(4-CH2NH2)]([AEEA-AEEA-γGlu-C18 diacid])SKYLDARAAQDFVQWL[Met(O2)]DT-NH2)

Second part, the compound before the results:

SMILES	EC50 [1]	EC50 [2]	hGCGR/hGLP1R (hTone) [2]
CC(C)C[C@H](NC(=O)[C@H](Cc1c[nH]c2ccccc12)NC(=O)[C@H](CCC(N)=O)NC(=O)[C@@H](NC(=O)[C@H](Cc1ccccc1)NC(=O)[C@H](CC(=O)O)NC(=O)[C@H](CCC(N)=O)NC(=O)[C@H](C)NC(=O)[C@H](C)NC(=O)[C@H](CCCNC(=N)N)NC(=O)C(C)(C)NC(=O)[C@H](CC(=O)O)NC(=O)[C@H](CC(C)C)NC(=O)[C@H](Cc1ccc(O)cc1)NC(=O)[C@H](CCCCN)NC(=O)[C@H](CO)NC(=O)[C@H](CCCCNC(=O)COCCOCCNC(=O)COCCOCCNC(=O)CC[C@H](NC(=O)CCCCCCCCCCCCCCCCC(=O)O)C(=O)O)NC(=O)[C@H](CC(=O)O)NC(=O)[C@H](CO)NC(=O)[C@@H](NC(=O)[C@H](Cc1ccccc1)NC(=O)[C@@H](NC(=O)CNC(=O)[C@H](CCC(N)=O)NC(=O)C(C)(C)NC(=O)[C@@H](N)Cc1c[nH]cn1)[C@@H](C)O)[C@@H](C)O)C(C)C)C(=O)N[C@@H](CCS(C)(=O)=O)C(=O)N[C@@H](CC(=O)O)C(=O)N[C@H](C(N)=O)[C@@H](C)O [compound 4] (H-H[Aib]QGTFTSDK([AEEA-AEEA-γGlu-C18 diacid])SKYLD[Aib]RAAQDFVQWL[Met(O2)]DT-NH2; N-terminus assumed)	0.27 nM	1.42 nM	5.36
CC(C)C[C@H](NC(=O)[C@H](Cc1c[nH]c2ccccc12)NC(=O)[C@H](CCC(N)=O)NC(=O)[C@@H](NC(=O)[C@H](Cc1ccccc1)NC(=O)[C@H](CC(=O)O)NC(=O)[C@H](CCCCNC(=O)COCCOCCNC(=O)COCCOCCNC(=O)CC[C@H](NC(=O)CCCCCCCCCCCCCCC(=O)O)C(=O)O)NC(=O)[C@H](C)NC(=O)[C@H](C)NC(=O)[C@H](CCCNC(=N)N)NC(=O)[C@H](C)NC(=O)[C@H](CC(=O)O)NC(=O)[C@](C)(CC(C)C)NC(=O)[C@H](Cc1ccc(O)cc1)NC(=O)[C@H](CCCCN)NC(=O)[C@H](CO)NC(=O)[C@H](Cc1ccc(O)cc1)NC(=O)[C@H](CC(=O)O)NC(=O)[C@H](CO)NC(=O)[C@@H](NC(=O)[C@H](Cc1ccccc1)NC(=O)[C@@H](NC(=O)CNC(=O)[C@H](CCC(N)=O)NC(=O)C(C)(C)NC(=O)[C@@H](N)Cc1c[nH]cn1)[C@@H](C)O)[C@@H](C)O)C(C)C)C(=O)N[C@@H](CCS(C)(=O)=O)C(=O)N[C@@H](CC(=O)O)C(=O)N[C@H](C(N)=O)[C@@H](C)O [compound 38] (H-H[Aib]QGTFTSDYSKY[αMeL]DARAAK([AEEA-AEEA-γGlu-C16 diacid])DFVQWL[Met(O2)]DT-NH2)	0.1 nM	0.46 nM	4.54
CC(C)C[C@H](NC(=O)[C@H](Cc1ccc(O)cc1)NC(=O)[C@H](CCCCN)NC(=O)[C@H](CO)NC(=O)[C@H](Cc1ccc(O)cc1)NC(=O)[C@H](CC(=O)O)NC(=O)[C@H](CO)NC(=O)[C@@H](NC(=O)[C@H](Cc1ccccc1)NC(=O)[C@@H](NC(=O)CNC(=O)[C@H](CCC(N)=O)NC(=O)C(C)(C)NC(=O)[C@@H](N)Cc1c[nH]cn1)[C@@H](C)O)[C@@H](C)O)C(=O)N[C@@H](CC(=O)O)C(=O)N[C@@H](C)C(=O)N[C@@H](CCCNC(=N)N)C(=O)N[C@@H](C)C(=O)N[C@@H](C)C(=O)N[C@@H](CCCCNC(=O)COCCOCCNC(=O)COCCOCCNC(=O)CC[C@H](NC(=O)CCCCCCCCCCCCCCC(=O)O)C(=O)O)C(=O)N[C@@](C)(CC(=O)O)C(=O)N[C@@H](Cc1ccccc1)C(=O)N[C@H](C(=O)N[C@@H](CCC(N)=O)C(=O)N[C@@H](Cc1c[nH]c2ccccc12)C(=O)N[C@@H](CC(C)C)C(=O)N[C@@H](CCS(C)(=O)=O)C(=O)N[C@@H](CC(=O)O)C(=O)N[C@H](C(N)=O)[C@@H](C)O)C(C)C [compound 42] (H-H[Aib]QGTFTSDYSKYLDARAAK([AEEA-AEEA-γGlu-C16 diacid])[αMeD]FVQWL[Met(O2)]DT-NH2)	0.04 nM	0.13 nM	3.21
CC(C)C[C@H](NC(=O)[C@H](Cc1ccc(O)cc1)NC(=O)[C@H](CCCCN)NC(=O)[C@H](CO)NC(=O)[C@H](Cc1ccc(O)cc1)NC(=O)[C@H](CC(=O)O)NC(=O)[C@H](CO)NC(=O)[C@@H](NC(=O)[C@H](Cc1ccccc1)NC(=O)[C@@H](NC(=O)CNC(=O)[C@H](CCC(N)=O)NC(=O)[C@@H](CO)NC(=O)[C@@H](N)Cc1c[nH]cn1)[C@@H](C)O)[C@@H](C)O)C(=O)N[C@@H](CC(=O)O)C(=O)N[C@@H](C)C(=O)N[C@@H](CCCNC(=N)N)C(=O)N[C@@H](C)C(=O)N[C@@H](C)C(=O)N[C@@H](Cc1ccc(CNC(=O)COCCOCCNC(=O)COCCOCCNC(=O)CC[C@H](NC(=O)CCCCCCCCCCCCCCC(=O)O)C(=O)O)cc1)C(=O)N[C@@H](CC(=O)O)C(=O)N[C@@H](Cc1ccccc1)C(=O)N[C@H](C(=O)N[C@@H](CCC(N)=O)C(=O)N[C@@H](Cc1c[nH]c2ccccc12)C(=O)N[C@@H](CC(C)C)C(=O)N[C@@H](CC(C)C)C(=O)N[C@@H](CC(=O)O)C(=O)N[C@H](C(N)=O)[C@@H](C)O)C(C)C [compound 22] (H-H[dS]QGTFTSDYSKYLDARAA[Phe(4-CH2NH2)]([AEEA-AEEA-γGlu-C16 diacid])DFVQWLLDT-NH2)	0.29 nM	0.02 nM	0.08
